The record followed here is ChEMBL document CHEMBL1134291, “The synthesis of a prodrug of doxorubicin designed to provide reduced systemic toxicity and greater target efficacy” (J Med Chem, 2001).

Where a SMILES comes first, the peptide text is derived from it. The star is where a group is joined. X1 = COc1cccc2c1C(=O)c1c(O)c3c(c(O)c1C2=O)C[C@@](O)(C(=O)CO)C[C@@H]3OC1CC(N*)C(O)C(C)O1

Data set [1] deals with Mus musculus. Kind of data set: Percentage weight reduction relative to vehicle control following intraperitoneal (ip) injection of conjugate dose for 5 consecutive days to nude mice bearing LNCaP tumor xenografts( 21.7 umol/kg dose).
Data set [2] relates to Mus musculus. As to the kind of experiment: Maximum nonlethal drug dose which could be administered (ip) to non tumor bearing nude mice for 5 consecutive days. Type of data set: functional.
For data set [3], the system named is LNCaP. Kind of data set: Percentage PSA reduction relative to vehicle control following intraperitoneal injection of conjugate dose for 5 consecutive days to nude mice bearing LNCaP tumor xenografts. Type of data set: functional, Homo sapiens.
The test system of data set [4] is PSA. As to the kind of experiment: Time required for PSA to hydrolyze 50% (t1/2). Type of data set: ADME. As to conditions: PSA (enzyme).
Data set [5] relates to LNCaP. As to the kind of experiment: Concentration required to kill 50% of tumor cells in PSA producing LNCaP human prostate cancer cell line. Type of data set: functional, cell-based.
Data set [6] concerns DuPro. As to the kind of experiment: Concentration required to kill 50% of tumor cells in PSA nonproducing DuPRO human prostate cancer cell line. Type of data set: functional, cell-based.
For data set [7], the system named is Mus musculus. As to the kind of experiment: Percentage weight reduction relative to vehicle control following intraperitoneal (ip) injection of conjugate dose for 5 consecutive days to nude mice bearing LNCaP tumor xenografts(18.9 umol/kg dose). Type of data set: functional.
Data set [8] has as its system Mus musculus. As to the kind of experiment: Percentage weight reduction relative to vehicle control following intraperitoneal (ip) injection of conjugate dose for 5 consecutive days to nude mice bearing LNCaP tumor xenografts( 29.0 umol/kg dose). Type of data set: functional.

Usually half-life stands for the time needed for the level to fall by half in the phase considered. Read a low half-life as rapid decline. For orientation: EC50 means the concentration needed to bring the measured effect to its halfway point. High values mean a less potent agent, low ones a more potent agent. In the case of `COc1cccc2c1C(=O)c1c(O)c3c(c(O)c1C2=O)C[C@@](O)(C(=O)CO)C[C@@H]3OC1CC(NC(=O)[C@H](CC(C)C)NC(=O)[C@H](CO)NC(=O)[C@@H](CCC(N)=O)NC(=O)[C@@H](NC(=O)[C@H](CO)NC(=O)[C@H](C)NC(=O)C2CC(O)CN2C(=O)CCC(=O)O)C2CCCCC2)C(O)C(C)O1` (stereo partly drawn), the Reduction in data set [1] was found to be 72%; in data set [3], 94%. This molecule also displayed an MTD in data set [2] of 28.9 µM/kg. Besides, the half-life in data set [4] is 0.917 h. Moreover, the EC50 in data set [5] came out at 5.7 µM; in data set [6], 100 µM.
With `COc1cccc2c1C(=O)c1c(O)c3c(c(O)c1C2=O)C[C@@](O)(C(=O)CO)C[C@@H]3OC1CC(NC(=O)[C@H](CC(C)C)NC(=O)[C@H](CO)NC(=O)[C@@H](CCC(N)=O)NC(=O)[C@H](Cc2ccc(O)cc2)NC(=O)[C@H](CO)NC(=O)[C@H](C)NC(=O)[C@H](CCCN)NC(C)=O)C(O)C(C)O1` (stereo partly drawn), in data set [2], the MTD was over 45.3 µM/kg. The Reduction in data set [3] was 22%; in data set [7] it was 26%. This molecule yielded a half-life in data set [4] of over 20 h. The EC50 in data set [5] was 85 µM; in data set [6] it was over 100 µM.
Molecule `COc1cccc2c1C(=O)c1c(O)c3c(c(O)c1C2=O)C[C@@](O)(C(=O)CO)C[C@@H]3OC1CC(NC(=O)[C@H](CC(C)C)NC(=O)[C@H](CO)NC(=O)[C@H](CO)NC(=O)[C@H](CO)NC(=O)[C@H](CCC(N)=O)NC(=O)[C@H](Cc2ccc(O)cc2)NC(=O)[C@H](CCCCN)NC(C)=O)C(O)C(C)O1` (stereo partly drawn) (Ac-KYQSSSL-X1) registered an MTD in data set [2] of 32.6 µM/kg. Moreover, the Reduction came to 70% in data set [8] and 90% in data set [3]. This molecule came in with a half-life in data set [4] of 1 h. Besides, the EC50 in data set [5] was 6.9 µM; in data set [6] it was over 100 µM.
